Test results: US12060333B2 (Hoffmann-La Roche Inc., priority 2021, dated 2024)

These compounds were tested against SARS-CoV-2 3CLpro (Severe acute respiratory syndrome coronavirus 2, UniProt P0DTD1) (assay: biochemical). Settings: IC50 (μM), SARS-CoV-2 3CLPro assay.

Q: Which IC50 does the source give for `NC(=O)CCN(NC(=O)[C@H](CC1CCCCC1)NC(=O)OCc1ccccc1)C(=O)C(F)Cl` (stereo partly drawn) [Example 16, Benzyl N-[(1S)-2-[2-(3-amino-3-oxo-propyl)-2-(2-chloro-2-fluoro-acetyl)hydrazino]-1-(cyclohexylmethyl)-2-axo-ethyl]carbamate] here?
A: 0.009 µM

Q: For `CC(C)C[C@H](NC(=O)OCc1ccccc1)C(=O)NN(CC1CCCNC1=O)C(=O)CCl` (stereo partly drawn) [Example 20, Benzyl N-[(1S)-1-[[(2-chloroacetyl)-[(2-oxo-3-piperidyl)methyl]amino]carbamoyl]-3-methyl-butyl]carbamate], which IC50 is on record?
A: 0.0046 µM

Q: For `COc1cccc2[nH]c(C(=O)N[C@@H](CC(C)C)C(=O)NN(CCC(N)=O)C(=O)CCl)cc12` [Example 27, 4-Methoxy-N-[(1S)-1-[[(3-amino-3-oxo-propyl)-(2-chloroacetyl)amino]carbamoyl]-3-methyl-butyl]-1H-indole-2-carboxamide], which IC50 is on record?
A: 0.006 µM

Q: `Cc1cc(C(=O)N[C@@H](CC(C)C)C(=O)NN(CCC(N)=O)C(=O)CCl)no1` [Example 29] was tested. Which IC50 did it give?
A: 0.034 µM

Q: How did the IC50 turn out when `COc1cccc2[nH]c(C(=O)N[C@@H](CC(C)C)C(=O)NN(CCC(N)=O)C(=O)CF)cc12` [Example 30, N-[(1S)-1-[[(3-Amino-3-axo-propyl)-(2-fluoroacetyl)amino]carbamoyl]-3-methyl-butyl]-4-methoxy-1H-indole-2-carboxamide] was run?
A: 0.16 µM

Q: Which IC50 does the source give for `CC(C)C[C@H](NC(=O)c1cc2ccccc2[nH]1)C(=O)NN(CCC(N)=O)C(=O)CF` [Example 31, N-[(1S)-1-[[(3-Amino-3-axo-propyl)-(2-fluoroacetyl)amino]carbamoyl]-3-methyl-butyl]-1H-indole-2-carboxamide] here?
A: 0.65 µM

Q: How did the IC50 turn out when `COc1cccc2[nH]c(C(=O)N[C@@H](CC3CCCCC3)C(=O)NN(CCC(N)=O)C(=O)CCl)cc12` [Example 32, N-[(1S)-2-[2-(3-Amino-3-axo-propyl)-2-(2-chloroacetyl)hydrazino]-1-(cyclohexylmethyl)-2-axo-ethyl]-4-methoxy-1H-indole-2-carboxamide] was run?
A: 0.002 µM

Q: `CC(C)C[C@H](NC(=O)c1cc2ccccc2[nH]1)C(=O)NN(CC1CCNC1=O)C(=O)CF` (stereo partly drawn) [Example 38, N-[(1S)-1-[[(2-fluoroacetyl)-[(2-oxo-pyrrolidin-3-yl)methyl]amino]carbamoyl]-3-methyl-butyl]-1H-indole-2-carboxamide] was tested. Which IC50 did it give?
A: 0.29 µM

Same assay, conditions: read-out: IC50 (μM), SARS-CoV-2 3CLPro assay

Q: For `CCC(Cl)C(=O)N(CCC(N)=O)NC(=O)[C@H](CC(C)C)NC(=O)OCc1ccccc1` (stereo partly drawn) [Example 5, Benzyl N-[(1S)-1-[[(3-amino-3-oxo-propyl)-(2-chlorobutanoyl)amino]carbamoyl]-3-methyl-butyl]carbamate], which IC50 is on record?
A: 1.76 µM

Q: How did the IC50 turn out when `CC(C)C[C@H](NC(=O)OCc1ccccc1)C(=O)NN(CCC(N)=O)C(=O)CBr` [Example 7, Benzyl N-[(1S)-1-[[(3-amino-3-oxo-propyl)-(2-bromoacetyl)amino]carbamoyl]-3-methyl-butyl]carbamate] was run?
A: 0.54 µM

Q: Which IC50 does the source give for `NC(=O)CCN(NC(=O)[C@H](CC1CCCCC1)NC(=O)OCc1ccccc1)C(=O)CCl` [Example 8, Benzyl N-[(1S)-2-[2-(3-amino-3-oxo-propyl)-2-(2-chloroacetyl)hydrazino]-1-(cyclohexylmethyl)-2-axo-ethyl]carbamate] here?
A: 0.008 µM

Q: With `NC(=O)CCN(NC(=O)[C@H](CC1CCCC1)NC(=O)OCc1ccccc1)C(=O)CCl` [Example 10, Benzyl N-[(1S)-2-[2-(3-amino-3-oxo-propyl)-2-(2-chloroacetyl)hydrazino]-1-(cyclopentylmethyl)-2-axo-ethyl]carbamate] as the compound, how does the IC50 read?
A: 0.006 µM

Q: Which IC50 does the source give for `NC(=O)CCN(NC(=O)[C@H](CC1CC1)NC(=O)OCc1ccccc1)C(=O)CCl` [Example 11, Benzyl N-[(1S)-2-[2-(3-amino-3-oxo-propyl)-2-(2-chloroacetyl)hydrazino]-1-(cyclopropylmethyl)-2-axo-ethyl]carbamate] here?
A: 0.023 µM

Q: Which IC50 does the source give for `NC(=O)CCN(NC(=O)[C@H](CC1CCCCC1)NC(=O)OCc1ccccc1)C(=O)CF` [Example 15, Benzyl N-[(1S)-2-[2-(3-amino-3-oxo-propyl)-2-(2-fluoroacetyl)hydrazino]-1-(cyclohexylmethyl)-2-axo-ethyl]carbamate] here?
A: 1.2 µM

Q: `CC(C)C[C@H](NC(=O)OCc1ccccc1)C(=O)NN(CCC(N)=O)C(=O)C(F)Cl` (stereo partly drawn) [Example 17, Benzyl N-[(1S)-1-[[(3-amino-3-oxo-propyl)-(2-chloro-2-fluoro-acetyl)amino]carbamoyl]-3-methyl-butyl]carbamate] was tested. Which IC50 did it give?
A: 0.09 µM

Q: How did the IC50 turn out when `CC(C)C[C@H](NC(=O)OCc1ccccc1)C(=O)NN(CC1CCNC1=O)C(=O)CCl` (stereo partly drawn) [Example 18, Benzyl N-[(1S)-1-[[(2-chloroacetyl)-[(2-oxo-pyrrolidin-3-yl)methyl]amino]carbamoyl]-3-methyl-butyl]carbamate] was run?
A: 0.017 µM

Q: For `CCCN(NC(=O)[C@H](CC(C)C)NC(=O)OCc1ccccc1)C(=O)CCl` [Example 21, Benzyl N-[(1S)-1-[[(2-chloroacetyl)-propyl-amino]carbamoyl]-3-methyl-butyl]carbamate], which IC50 is on record?
A: 0.39 µM

Q: With `CC(C)C[C@H](NC(=O)OCc1ccccc1)C(=O)NN(Cc1cc[nH]n1)C(=O)CCl` [Example 23, Benzyl N-[(1S)-1-[[(2-chloroacetyl)-(1H-pyrazol-3-ylmethyl)amino]carbamoyl]-3-methyl-butyl]carbamate] as the compound, how does the IC50 read?
A: 0.034 µM

Q: How did the IC50 turn out when `CC(C)C[C@H](NC(=O)OCc1ccccc1)C(=O)NN(Cc1c[nH]cn1)C(=O)CCl` [Example 24, Benzyl N-[(1S)-1-[[(2-chloroacetyl)-(1H-imidazol-4-ylmethyl)amino]carbamoyl]-3-methyl-butyl]carbamate] was run?
A: 0.087 µM

Q: Which IC50 does the source give for `CC(C)C[C@H](NC(=O)OC(C)(C)C)C(=O)NN(CCC(N)=O)C(=O)CCl` [Example 26, tert-Butyl N-[(1S)-1-[[(3-amino-3-oxo-propyl)-(2-chloroacetyl)amino]carbamoyl]-3-methyl-butyl]carbamate] here?
A: 0.67 µM

Q: For `NC(=O)CCN(NC(=O)[C@H](CC1CCCCC1)NC(=O)/C=C/c1ccc(Cl)cc1F)C(=O)CCl` [Example 33, 3-[(2-Chloroacetyl)-[[(2S)-2-[[(E)-3-(4-chloro-2-fluoro-phenyl)prop-2-enoyl]amino]-3-cyclohexyl-propanoyl]amino]amino]propanamide], which IC50 is on record?
A: 0.002 µM

Q: Which IC50 does the source give for `CC(C)C[C@H](NC(=O)/C=C/c1ccc(Cl)cc1F)C(=O)NN(CCC(N)=O)C(=O)CCl` [Example 34, 3-[(2-Chloroacetyl)-[[(2S)-2-[[(E)-3-(4-chloro-2-fluoro-phenyl)prop-2-enoyl]amino]-4-methyl-pentanoyl]amino]amino]propanamide] here?
A: 0.005 µM

Q: Which IC50 does the source give for `NC(=O)CCN(NC(=O)[C@H](CC1CCCCC1)NC(=O)c1cc2ccccc2[nH]1)C(=O)CCl` [Example 35, N-[(1S)-2-[2-(3-Amino-3-axo-propyl)-2-(2-chloroacetyl)hydrazino]-1-(cyclohexylmethyl)-2-axo-ethyl]-1H-indole-2-carboxamide] here?
A: 0.002 µM

Q: How did the IC50 turn out when `NC(=O)CCN(NC(=O)[C@H](CC1CCCCC1)NC(=O)c1cc2ccccc2[nH]1)C(=O)CF` [Example 36, N-[(1S)-2-[2-(3-Amino-3-axo-propyl)-2-(2-fluoroacetyl)hydrazino]-1-(cyclohexylmethyl)-2-axo-ethyl]-1H-indole-2-carboxamide] was run?
A: 0.14 µM

Q: For `COc1cccc2[nH]c(C(=O)N[C@@H](CC3CCCCC3)C(=O)NN(CCC(N)=O)C(=O)CF)cc12` [Example 37, N-[(1S)-2-[2-(3-Amino-3-axo-propyl)-2-(2-fluoroacetyl)hydrazino]-1-(cyclohexylmethyl)-2-axo-ethyl]-4-methoxy-1H-indole-2-carboxamide], which IC50 is on record?
A: 0.038 µM

Q: How did the IC50 turn out when `CN(C(=O)c1cc2ccccc2[nH]1)[C@@H](CC1CCCCC1)C(=O)NN(CCC(N)=O)C(=O)CCl` [Example 39, N-[(1S)-2-[2-(3-Amino-3-axo-propyl)-2-(2-chloroacetyl)hydrazino]-1-(cyclohexylmethyl)-2-axo-ethyl]-N-methyl-1H-indole-2-carboxamide] was run?
A: 0.002 µM

Q: Which IC50 does the source give for `CC(C)C[C@@H](C(=O)NN(CCC(N)=O)C(=O)CCl)N(C)C(=O)c1cc2ccccc2[nH]1` [Example 40, N-[(1S)-1-[[(3-Amino-3-axo-propyl)-(2-chloroacetyl)amino]carbamoyl]-3-methyl-butyl]-N-methyl-1H-indole-2-carboxamide] here?
A: 0.007 µM

Q: With `CC(C)C[C@H](NC(=O)c1nc2ccccc2[nH]1)C(=O)NN(CCC(N)=O)C(=O)CCl` [Example 42, N-[(1S)-1-[[(3-Amino-3-axo-propyl)-(2-chloroacetyl)amino]carbamoyl]-3-methyl-butyl]-1H-benzimidazole-2-carboxamide] as the compound, how does the IC50 read?
A: 0.005 µM

Q: How did the IC50 turn out when `CC(C)C[C@H](NC(=O)c1ccon1)C(=O)NN(CCC(N)=O)C(=O)CCl` [Example 43, N-[(1S)-1-[[(3-Amino-3-oxo-propyl)-(2-chloroacetyl)amino]carbamoyl]-3-methyl-butyl]isoxazole-3-carboxamide] was run?
A: 0.036 µM

Q: `CC(C)C[C@H](NC(=O)c1cc2cccnc2[nH]1)C(=O)NN(CCC(N)=O)C(=O)CCl` [Example 44, N-[(1S)-1-[[(3-Amino-3-oxo-propyl)-(2-chloroacetyl)amino]carbamoyl]-3-methyl-butyl]-1H-pyrrolo[2,3-b]pyridine-2-carboxamide] was tested. Which IC50 did it give?
A: 0.017 µM

Q: Which IC50 does the source give for `Cc1nc(C(=O)N[C@@H](CC(C)C)C(=O)NN(CCC(N)=O)C(=O)CCl)co1` [Example 45, N-[(1S)-1-[[(3-Amino-3-oxo-propyl)-(2-chloroacetyl)amino]carbamoyl]-3-methyl-butyl]-2-methyl-oxazole-4-carboxamide] here?
A: 0.046 µM

Q: `Cc1oncc1C(=O)N[C@@H](CC(C)C)C(=O)NN(CCC(N)=O)C(=O)CCl` [Example 46, N-[(1S)-1-[[(3-Amino-3-oxo-propyl)-(2-chloroacetyl)amino]carbamoyl]-3-methyl-butyl]-5-methyl-isoxazole-4-carboxamide] was tested. Which IC50 did it give?
A: 0.07 µM

Q: For `COc1cc2cc(C(=O)N[C@@H](CC(C)C)C(=O)NN(CCC(N)=O)C(=O)CCl)nc-2c[nH]1` [Example 47, N-[(1S)-1-[[(3-Amino-3-oxo-propyl)-(2-chloroacetyl)amino]carbamoyl]-3-methyl-butyl]-5-methoxy-6H-pyrrolo[2,3-c]pyridine-2-carboxamide], which IC50 is on record?
A: 0.014 µM
